Tests used:
HTT = assay: HiBiT protein abundance assay, HTT; format: cell-based, human; conditions: modified K562 cells
Outline: (§1)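 Luminescent readout from lytic HiBiT/LgBiT complementation reports endogenous tagged protein level in engineered K562 cells. Compounds dosed 24 h, top 10 μM final, 3-fold steps, 10 points. IC50 is the concentration giving 50% of untreated-control abundance, from 4-parameter logistic fit.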

[1] = test system: MDCK-BCRP or MDCKII-MDR1 cells; assay: Transwell assay for membrane efflux and permeability; format: in vitro ADME, Canine; conditions: test compound 1 μM, 2 hours at 37° C.
Outline: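 Transport measured over 2 h at 37 °C with compounds at 1 μM final in HBSS containing 0.5% DMSO. Monolayers of BCRP-expressing MDCK or MDR1-expressing MDCKII cells were cultured 4-8 days, then HBSS-washed and equilibrated 30 min at 37 °C before dosing.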

MYB = assay: HiBiT protein abundance assay, MYB; format: cell-based, human; conditions: modified K562 cells
Outline: as §1

[2] = Homo sapiens, K562, 24 h, Table 13A
[3] = Homo sapiens, K562, 24 h, Table 13B

SMILES	IC50 (HTT; [3]) [nM]	IC50 (MYB; [3]) [nM]	other results
Fc1cc(-c2ccc(OC3CC4CC(F)(F)C(C3)N4)nn2)c2[nH]ncc2c1-c1cn[nH]c1 (stereo not shown) [Compound 313, 7-[6-({6,6-difluoro-8-azabicyclo[3.2.1]octan-3-yl}oxy)pyridazin-3-yl]-5-fluoro-4-(1H-pyrazol-4-yl)-1H-indazole]			IC50 (HTT; [2]): 100 to 1000 nM; Permeability (Papp) [1]: C (C represents a Papp greater than 6×10^−6 cm S^−1); IC50 (MYB; [2]): 100 to 1000 nM
CN(c1ccc(-c2ccc(-c3cn[nH]c3)c3ncsc23)nn1)[C@H]1C[C@H]2COC[C@@H](C1)N2 [Compound 356, (endo)-N-methyl-N-{6-[4-(1H-pyrazol-4-yl)-1,3-benzothiazol-7-yl]pyridazin-3-yl}-3-oxa-9-azabicyclo[3.3.1]nonan-7-amine]			IC50 (HTT; Table 13A, 24 hours): < 100 nM; Efflux Ratio [1]: C (C represents a ratio greater than 5); Permeability (Papp) [1]: A (A represents a Papp <2×10^−6 cm s^−1); IC50 (MYB; Table 13A, 24 hours): < 100 nM
COc1cc(-c2ccc(-c3ccc(N(C)[C@@H]4C[C@H]5CC[C@@H](C4)N5)nn3)nc2OC)ncn1 [Compound 954]	100 to 1000	1000 to 10000	
CN(c1ccc(-c2ccc(-c3cn[nH]c3)c(OC(F)F)n2)nn1)[C@@H]1C[C@H]2CC[C@@H](C1)N2 [Compound 955]	< 100	< 100	
COc1nc(-c2ccc(N3CCC(NC(C)(C)C)C3)nn2)ccc1-c1cn[nH]c1 (stereo not shown) [Compound 956]	< 100	100 to 1000	
COc1nc(-c2ccc(N(C)[C@@H]3C[C@H]4CC[C@@H](C3)N4)nn2)ccc1-c1ccnc(O)c1 [Compound 961]	100 to 1000	1000 to 10000	
COc1nc(-c2ccc(O[C@@H]3C[C@H]4CC[C@@H](C3)N4)nn2)ccc1-c1cnc(C)s1 [Compound 962]	100 to 1000	100 to 1000	
COc1nc(-c2ccc(OC3CC(C)(C)NC(C)(C)C3)nn2)cc(F)c1-c1cn[nH]c1 [Compound 965]	< 100	100 to 1000	
CCOc1nc(-c2ccc(OC3CC(C)(C)NC(C)(C)C3)nn2)cc(F)c1-c1cn[nH]c1 [Compound 966]	< 100	< 100	
CCOc1nc(-c2ccc(OC3CC(C)(C)NC(C)(C)C3)nn2)ccc1-c1cn[nH]c1 [Compound 967]	< 100	100 to 1000	
COc1nc(-c2ccc(OC3CC4CC(F)(F)C(C3)N4)nn2)cc(F)c1-c1cn[nH]c1 (stereo not shown) [Compound 969]	100 to 1000	100 to 1000	

From patent publication US20240368163A1, “COMPOUNDS AND METHODS FOR MODULATING SPLICING” (REMIX THERAPEUTICS INC., priority 2021, published 2024)
